Key:
Conditions in all cases: incubation time: 72 h
CAL-85-1 [1] = test: normalised response (% of control), CellTiter-Glo; higher = more viable cells (100 = DMSO, 0 = benzethonium chloride kill control)
Experimental: (§1)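 DSRT, 72 h incubation, CellTox Green / CellTiter-Glo readout. Signal is normalised to DMSO and benzethonium chloride controls. Value is the normalised response at dose 3.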

HCC1937 [2] = test: as above
Experimental: as §1

MCF-10A [3] = test: as above
Experimental: as §1

HCC1143 [4] = test: as above
Experimental: as §1

MDA-MB-468 [5] = test: as above
Experimental: as §1

MDA-MB-231 [6] = test: as above
Experimental: as §1

HCC1599 [7] = test: as above
Experimental: as §1

MFM-223 [8] = test: as above
Experimental: as §1

BT-474 [9] = test: as above
Experimental: as §1

BT-549 [10] = test: as above
Experimental: as §1

SK-BR-3 = test: as above
Experimental: as §1

CAL-120 [11] = test: as above
Experimental: as §1

CAL-148 [12] = test: as above
Experimental: as §1

Hs578T [13] = test: as above
Experimental: as §1

MDA-MB-436 [14] = test: as above
Experimental: as §1

DU-4475 [15] = test: as above
Experimental: as §1

HDQ-P1 [16] = test: as above
Experimental: as §1

CAL-51 [17] = test: as above
Experimental: as §1

MDA-MB-453 [18] = test: as above
Experimental: as §1

CAL-85-1 [19] = test: normalised response (% of control), CellTox Green; higher = less cell death (100 = DMSO, 0 = benzethonium chloride kill control)
In short: (§2)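 Breast cancer cell lines in 20 µl suspension were added to 384-well plates containing compound at 5 concentrations, spaced in 10-fold steps across a 10,000-fold range chosen for each compound, and incubated for 72 h. CellTox Green fluorescence was read at 485/520 nm, followed by CellTiter-Glo luminescence after 10 min at room temperature. Signals on each plate were normalised so that 0.1 % DMSO equals 100 and a positive kill control equals 0. Every value in the table is the normalised signal at one concentration of the series.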

MCF-10A [20] = test: as above
In short: as §2

HCC1143 [21] = test: as above
In short: as §2

MDA-MB-468 [22] = test: as above
In short: as §2

MDA-MB-231 [23] = test: as above
In short: as §2

HCC1599 [24] = test: as above
In short: as §2

MFM-223 [25] = test: as above
In short: as §2

BT-474 [26] = test: as above
In short: as §2

BT-549 [27] = test: as above
In short: as §2

CAL-120 [28] = test: as above
In short: as §2

CAL-148 [29] = test: as above
In short: as §2

Hs578T [30] = test: as above
In short: as §2

MDA-MB-436 [31] = test: as above
In short: as §2

DU-4475 [32] = test: as above
In short: as §2

HDQ-P1 [33] = test: as above
In short: as §2

CAL-51 [34] = test: as above
In short: as §2

MDA-MB-453 [35] = test: as above
In short: as §2

HCC1937 [36] = test: as above
In short: as §2

Compound	normalised response (CAL-85-1 [1])	normalised response (HCC1937 [2])	normalised response (MCF-10A [3])	normalised response (HCC1143 [4])	normalised response (MDA-MB-468 [5])	normalised response (MDA-MB-231 [6])	normalised response (HCC1599 [7])	normalised response (MFM-223 [8])	normalised response (BT-474 [9])	normalised response (BT-549 [10])	normalised response (SK-BR-3)	normalised response (CAL-120 [11])	normalised response (CAL-148 [12])	normalised response (Hs578T [13])	normalised response (MDA-MB-436 [14])	normalised response (DU-4475 [15])	normalised response (HDQ-P1 [16])	normalised response (CAL-51 [17])	normalised response (MDA-MB-453 [18])	normalised response (CAL-85-1 [19])	normalised response (MCF-10A [20])	normalised response (HCC1143 [21])	normalised response (MDA-MB-468 [22])	normalised response (MDA-MB-231 [23])	normalised response (HCC1599 [24])	normalised response (MFM-223 [25])	normalised response (BT-474 [26])	normalised response (BT-549 [27])	normalised response (CAL-120 [28])	normalised response (CAL-148 [29])	normalised response (Hs578T [30])	normalised response (MDA-MB-436 [31])	normalised response (DU-4475 [32])	normalised response (HDQ-P1 [33])	normalised response (CAL-51 [34])	normalised response (MDA-MB-453 [35])	normalised response (HCC1937 [36])
Cc1c(N)nc([C@H](CC(N)=O)NC[C@H](N)C(N)=O)nc1C(=O)N[C@H](C(=O)N[C@H](C)[C@@H](O)[C@H](C)C(=O)N[C@H](C(=O)NCCc1nc(-c2nc(C(=O)NCCC[S+](C)C)cs2)cs1)[C@@H](C)O)[C@@H](OC1OC(CO)C(O)C(O)C1OC1OC(CO)C(O)C(OC(N)=O)C1O)c1cnc[nH]1 (stereo partly drawn) [Bleomycin] (100 nM)	96.8%	84.2%	90.6%	90.6%	80.4%	89.3%	94.6%	95.6%	95.8%	77.2%	92.8%	95.3%	87.7%	93.2%	89.1%	93.8%	99.5%	55%	90.2%	99.8%	93.2%	91.3%	151%	104%	91.9%	101%	98.1%	87.6%	95.1%	93.5%	81.2%	58.6%	98.6%	110%	36.9%	103%	–
CCCCCOC(=O)Nc1nc(=O)n([C@@H]2O[C@H](C)[C@@H](O)[C@H]2O)cc1F [Capecitabine] (100 nM)	95.4%	97.2%	95.5%	98.7%	103%	99.5%	98.3%	102%	98.7%	102%	100%	103%	114%	98.8%	102%	106%	97.5%	99.5%	103%	105%	101%	87.6%	127%	104%	95.2%	104%	91.4%	89.4%	99.9%	99.1%	–	95.3%	99.9%	105%	105%	97.3%	103%
C[C@@H]1C[C@H]2[C@@H]3CCC4=CC(=O)C=C[C@]4(C)[C@@]3(F)[C@@H](O)C[C@]2(C)[C@@]1(O)C(=O)CO [Dexamethasone] (100 nM)	113%	99%	84.3%	101%	103%	154%	95.2%	95.7%	145%	103%	88.4%	72.8%	91.2%	92.5%	101%	102%	84.8%	101%	83.8%	107%	97%	101%	97.2%	–	96%	95.7%	96.4%	101%	96.7%	97.2%	114%	67.3%	96.4%	–	99.4%	95.5%	68%
Cc1c(C(=O)Nc2ccc(N3C[C@@H](C)O[C@@H](C)C3)nc2)cccc1-c1ccc(OC(F)(F)F)cc1 [Erismodegib] (100 nM)	92.6%	103%	89.6%	96.4%	90.4%	99.9%	93.5%	85.6%	91.2%	102%	88.6%	101%	92.7%	101%	92.3%	99.4%	91.3%	68.9%	85%	88.8%	94.9%	98.8%	–	97.2%	110%	97.2%	97.1%	104%	94.8%	105%	109%	101%	95.8%	99.6%	93.3%	98.6%	–
O=NN(CCCl)C(=O)NC1CCCCC1 [Lomustine] (100 nM)	95.6%	89.4%	98.4%	104%	96.1%	99.4%	90.1%	110%	104%	103%	102%	97.7%	91.5%	99.6%	101%	107%	104%	104%	101%	113%	103%	104%	103%	110%	101%	105%	101%	77.1%	102%	–	102%	108%	103%	96.1%	109%	106%	96.5%
N[C@@H](Cc1ccc(N(CCCl)CCCl)cc1)C(=O)O [Melphalan] (125 nM)	105%	83.4%	103%	90.2%	75.4%	83.3%	104%	91.5%	91.5%	100%	84.8%	108%	78.3%	93.1%	98.1%	92.7%	90.1%	67.5%	79.2%	104%	98.4%	102%	87.3%	50.5%	88.9%	96.1%	102%	103%	101%	89.5%	–	103%	107%	108%	75.1%	76.5%	99.1%
C[C@]12C=CC(=O)C=C1CC[C@@H]1[C@@H]2C(=O)C[C@@]2(C)[C@H]1CC[C@]2(O)C(=O)CO [Prednisone] (100 nM)	103%	101%	109%	105%	99.3%	107%	133%	102%	107%	99.8%	104%	103%	117%	101%	101%	101%	101%	68.4%	113%	104%	85.8%	119%	126%	–	105%	78.5%	103%	96.7%	99.5%	64.5%	111%	92.4%	103%	–	101%	107%	–
CO[C@H]1C[C@@H]2CC[C@@H](C)[C@@](O)(O2)C(=O)C(=O)N2CCCC[C@H]2C(=O)O[C@H]([C@H](C)C[C@@H]2CC[C@@H](O)[C@H](OC)C2)CC(=O)[C@H](C)/C=C(\C)[C@@H](O)[C@@H](OC)C(=O)[C@H](C)C[C@H](C)/C=C/C=C/C=C/1C [Sirolimus] (1 nM)	78.4%	85.6%	112%	92.5%	71.1%	101%	103%	96.5%	90.5%	83.5%	95.4%	98%	94.2%	88.2%	92.4%	98.7%	102%	90.1%	93.7%	105%	91.9%	78.7%	119%	109%	94.8%	92.6%	102%	78.5%	97.4%	103%	–	79.2%	105%	97.1%	107%	109%	–
